The values below come from patent US20240410876A1, “EXTRACELLULAR VESICLE DRUG ANALYSIS FOR REAL-TIME MONITORING OF TARGETED THERAPY” (NATIONAL UNIVERSITY OF SINGAPORE, priority 2021, published 2024).

One test deals with H3255 cells. Put plainly: Anti-proliferation activity (MTS assay). The format is cell-based. The following applies: Homo sapiens, NCI-H3255; H3255 lung cancer cells, 72 hours. The procedure: MTS assay. […] Cell viability was assessed using the [3-(4,5-dimethylthiazol-2-yl)-5-(3-carboxymethoxyphenyl)-2-(4-sulfophenyl)-2H-tetrazolium inner salt (MTS) cell proliferation assay (Promega).
For orientation: Formazan colour is commonly taken as a measure of viable cells.

In test [1] the test system is EGFR. Kind of test: Multiplexed ExoSCOPE: drug occupancy in EVs secreted by drug-treated cells. The following applies: heterogeneous cell mixture, 1 μM, within 24 hours, CD63/EGFR/EpCAM/MUC1 vesicle subpopulations. In kind it is cell-based, human.
Procedure: ExoSCOPE assay. We developed the ExoSCOPE assay for the direct analysis of both marker composition and drug occupancy in EVs. Samples were diluted 1:1 in PBS before ExoSCOPE analyses. We treated the diluted samples with click probe A3 (tagged with TCO, 100 nM) at 37° C. for 30 min before analysis. […] To measure EV marker composition (for a single marker analysis), we incubated the samples on antibody-functionalized ExoSCOPE sensors (1 μL, 10 min, room temperature), to achieve marker-specific EV capture. As a control experiment, sensors functionalized with IgG isotope control antibodies were used. Relative spectral changes (plasmonic signals) were measured to determine marker-specific EV binding. To measure EV drug occupancy, we used the click probes within sensor-bound vesicles to achieve enzymatic amplification. Specifically, we utilized the probes' click handles (TCO) to recruit tetrazine-conjugated horseradish peroxidase (HRP), which catalyzed in situ, enzymatic conversion of the soluble substrate (3,3′-diaminobenzidine, DAB) to form local, insoluble polymeric products on labeled vesicles; these insoluble deposits acted as optical products to amplify the plasmonic signals. […] Relative spectral changes were measured to determine probe labeling. […]
The target of test [2] is T1, EGFR (Homo sapiens, UniProt P00533, L858R).
T1 construct: endogenous in cells; host or cells: H3255 human lung cancer cells
Put plainly: Live-cell labeling of H3255 cells by click probes (in-gel fluorescence). In kind it is cell-based. The procedure: In-gel fluorescence analysis of cell labeling. Cell pellets were resuspended in Pierce IP lysis buffer (Thermo Scientific) supplemented with protease inhibitor cocktail (Thermo Scientific). After lysis on ice, the lysate was centrifuged at 2000 g, 4° C. for 2 min, and the supernatant was collected and normalized to 1.5 mg/mL with PBS. 40 μL of each sample was first blocked with iodoacetamide (15 mM, Sigma) for 30 min at room temperature in the dark, followed by click reaction with either DBCO-TMR or tetrazine-TMR (25 μM, Click Chemistry Tools) at room temperature for 30 min. The sample was then boiled in LDS sample buffer at 95° C. for 5 min, and resolved by 4-12% SDS-PAGE gel. Finally, the fluorescently labeled proteins were visualized with a ChemiDoc imaging system and subsequently stained with Bio-Safe Coomassie (Bio-Rad).

Values joined by “and” are separate entries in the source; they are usually repeats but may differ in a detail not shown here. Equal values may be shown once.

T1 sequence (P00533 25-1210 L858R): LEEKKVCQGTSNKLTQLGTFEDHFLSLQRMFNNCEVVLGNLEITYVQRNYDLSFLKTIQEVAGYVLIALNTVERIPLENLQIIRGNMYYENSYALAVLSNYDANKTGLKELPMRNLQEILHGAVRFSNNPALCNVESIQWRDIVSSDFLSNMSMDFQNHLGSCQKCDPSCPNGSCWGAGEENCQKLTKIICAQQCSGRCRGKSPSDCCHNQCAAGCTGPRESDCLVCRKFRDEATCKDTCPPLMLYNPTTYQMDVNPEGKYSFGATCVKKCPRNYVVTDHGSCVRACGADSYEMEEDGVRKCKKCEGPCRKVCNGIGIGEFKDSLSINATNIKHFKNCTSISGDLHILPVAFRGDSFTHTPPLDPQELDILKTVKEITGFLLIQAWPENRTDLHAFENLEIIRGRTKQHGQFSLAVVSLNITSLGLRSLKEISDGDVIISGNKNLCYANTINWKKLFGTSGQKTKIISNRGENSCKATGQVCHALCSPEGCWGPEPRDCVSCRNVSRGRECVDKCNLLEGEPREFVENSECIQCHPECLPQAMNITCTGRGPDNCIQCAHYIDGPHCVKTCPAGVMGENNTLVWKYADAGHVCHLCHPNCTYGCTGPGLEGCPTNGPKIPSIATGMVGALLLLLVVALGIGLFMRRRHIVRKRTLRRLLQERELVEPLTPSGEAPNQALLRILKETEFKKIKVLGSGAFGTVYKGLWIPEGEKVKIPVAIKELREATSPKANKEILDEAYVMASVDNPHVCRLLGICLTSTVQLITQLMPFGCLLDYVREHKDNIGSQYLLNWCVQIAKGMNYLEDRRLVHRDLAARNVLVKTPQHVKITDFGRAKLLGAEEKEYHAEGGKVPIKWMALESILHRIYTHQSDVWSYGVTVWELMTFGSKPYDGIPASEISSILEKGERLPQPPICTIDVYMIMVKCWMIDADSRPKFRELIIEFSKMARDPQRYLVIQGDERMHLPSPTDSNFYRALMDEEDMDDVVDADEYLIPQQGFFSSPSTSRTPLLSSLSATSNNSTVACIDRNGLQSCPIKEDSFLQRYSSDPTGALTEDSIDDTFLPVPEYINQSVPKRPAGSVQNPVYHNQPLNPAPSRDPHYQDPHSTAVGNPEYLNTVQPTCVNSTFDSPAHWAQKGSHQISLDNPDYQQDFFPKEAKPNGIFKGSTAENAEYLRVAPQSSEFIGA

The term GI50 denotes the concentration giving 50% growth inhibition. Low readings indicate more potent growth inhibition, high ones less potent growth inhibition. Compound `CN(C)C/C=C/C(=O)Nc1cc2c(Nc3ccc(F)c(Cl)c3)ncnc2cc1O[C@H]1CCOC1` [afatinib, reference compound] came in with a GI50 in the test on H3255 cells of 0.6 nM.

As to `C#Cc1cccc(Nc2ncnc3cc(OCCOC)c(OCCOC)cc23)c1` [erlotinib], the “time-dependent change of ξEV” value in the test with EGFR [1] is reported as “increased”.

In the test on H3255 cells, `CN(C)C/C=C/C(=O)Nc1cc2c(Nc3ccc(F)c(Cl)c3)ncnc2cc1OCCCNC(=O)CNC(=O)OC1CC/C=C/CCC1` (stereo not drawn) [probe A3, (E)-cyclooct-4-en-1-yl (2-((3-((4-((3-chloro-4-fluorophenyl)amino)-6-((E)-4-(dimethylamino)but-2-enamido)quinazolin-7-yl)oxy)propyl)amino)-2-oxoethyl)carbamate] yielded a GI50 of 1.8 nM. The “signal-to-noise ratio of EGFR labeling among the click probes” value at EGFR [2] (100 nM probe, with or without afatinib 1 μM) is given as “best signal-to-noise ratio”. In addition, the “incubation time to maximal labeling” value on EGFR [2] (probe 100 nM, H3255 cells) was found to be 1 h. For the same compound, the “live-cell EGFR labeling efficiency” value at EGFR [2] (probe 100 nM, H3255 cells, 15 min incubation) was > 90% and 90%.
